Experimental findings from PubChem BioAssay (NCI) are described below.

SMILES strings stand for the structures. Several values for one entry are separate records, joined by “and”; a condition that tells them apart may be missing. Equal entries are not always repeated.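 Results reflect a 48-hour exposure of cells in 96-well plates to compound at five concentrations. At the GI50, growth is halved. At the TGI there is no net growth.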

Test systems include SK-OV-3 ovarian; LOX IMVI melanoma; MDA-MB-435; NCI-H522 lung; A498 renal; OVCAR-3 ovarian; SR leukemia; HCC-2998 colon; CCRF-CEM leukemia; SF-268 CNS.
Common to all, as to assay: NCI anticancer screen, dose series, 48 h

With `COc1ccc(S(=O)(=O)N2C(=O)CCC2C(=O)NN)cc1` (stereo unspecified), the TGI with SK-OV-3 ovarian, in the assay with LOX IMVI melanoma, in the assay on MDA-MB-435, in the assay with NCI-H522 lung, with A498 renal and in the assay with OVCAR-3 ovarian was over 100 µM throughout. Further, the TGI in the assay on SR leukemia, with HCC-2998 colon and in the assay with CCRF-CEM leukemia was over 100 µM throughout.
Turning to `Cc1cc2c([N+](=O)[O-])cc3c(c2o1)C(=O)C=CC3=O`, the TGI in the assay on SK-OV-3 ovarian is over 80.1 µM; in the assay with LOX IMVI melanoma, over 36 µM; in the assay with MDA-MB-435 it was 7.81 µM; with NCI-H522 lung, 3.32 µM; with A498 renal it was 29.5 µM; in the assay with OVCAR-3 ovarian, 19 µM. The TGI in the assay with SR leukemia was over 76.4 µM; in the assay on SF-268 CNS it was 32.1 µM; in the assay with HCC-2998 colon, over 57.8 µM.
Take `Cc1cc(-c2nc3ccccc3s2)ccc1NC(=O)[C@@H](N)CCCCN`: the TGI with SK-OV-3 ovarian was found to be 27.2 µM; in the assay with LOX IMVI melanoma, 5.92 µM; with MDA-MB-435 it was 10 µM; with NCI-H522 lung it was 19.2 µM; in the assay on A498 renal, 19.2 µM; in the assay on OVCAR-3 ovarian it was 26.3 µM. Besides, the TGI was over 54.7 µM in the assay on SR leukemia, 14.5 µM in the assay on SF-268 CNS, 24.5 µM in the assay with HCC-2998 colon and 22.5 µM in the assay on CCRF-CEM leukemia.
Take `COC(C)(C)[C@@H](O)[C@H]1C[C@H](C)[C@@]2(CC[C@]3(C)[C@@H]2CC[C@@H]2[C@@]4(C)CC[C@@H](OC(C)=O)C(C)(C)[C@@H]4C[C@@H](OC4OC(COC(C)=O)C(O)C(O)C4O)[C@]23C)O1` (stereo partly specified): the TGI in the assay on SK-OV-3 ovarian stood at 15.1 µM; in the assay with LOX IMVI melanoma it was 14.9 µM; in the assay with MDA-MB-435 it was 12.3 µM; with NCI-H522 lung, 17.4 µM; with A498 renal, 14.4 µM; in the assay with OVCAR-3 ovarian, 15.3 µM. Besides, the TGI in the assay on SR leukemia is 5.25 µM; in the assay with SF-268 CNS, 18.6 µM; with HCC-2998 colon, 2.92 µM; in the assay with CCRF-CEM leukemia it was over 37 µM.
As for `NCCCN1CCN(CCCNc2ccc3nnn4c5ccccc5c(=O)c2c34)CC1`, the TGI is over 100 µM in the assay with SK-OV-3 ovarian; 26.8 µM with LOX IMVI melanoma; 60.1 µM with MDA-MB-435; 27.1 µM in the assay on NCI-H522 lung; 40.6 µM with A498 renal; over 100 µM in the assay on OVCAR-3 ovarian. The TGI in the assay with SR leukemia is over 100 µM; with SF-268 CNS, 75 µM; in the assay on HCC-2998 colon it was 29.4 µM; in the assay with CCRF-CEM leukemia, 35.7 µM.
`COc1cc2cc(Oc3ccc(NC(=O)c4cc(C(F)(F)F)cc(C(F)(F)F)c4)cc3)c(C)nc2cc1OC`: the GI50 with SK-OV-3 ovarian is over 50000 nM; in the assay with LOX IMVI melanoma, 47 µM; in the assay with MDA-MB-435, over 50000 nM; with NCI-H522 lung, 2010 nM; in the assay on A498 renal, 1130 nM; with OVCAR-3 ovarian, 1960 nM. Further, the GI50 in the assay on SR leukemia was 4.8 µM; with SF-268 CNS it was over 50000 nM; in the assay with HCC-2998 colon it was over 50000 nM; in the assay with CCRF-CEM leukemia, 2320 nM. In addition, the TGI in the assay on SK-OV-3 ovarian, in the assay on LOX IMVI melanoma, with MDA-MB-435, in the assay with NCI-H522 lung, in the assay with A498 renal and in the assay with OVCAR-3 ovarian was over 50 µM each time. The TGI in the assay with SR leukemia, with SF-268 CNS, with HCC-2998 colon and with CCRF-CEM leukemia was over 50 µM each time.
For `COC(=O)CN1c2nc(C#N)c(C#N)nc2N(CC(=O)OC)c2nc(C#N)c(C#N)nc21`, the TGI in the assay with SK-OV-3 ovarian was 35.2 µM; in the assay on LOX IMVI melanoma it was over 20.1 µM; in the assay with MDA-MB-435, over 100 µM; in the assay with NCI-H522 lung it was 3.74 µM; in the assay on A498 renal, over 52 µM; in the assay on OVCAR-3 ovarian, 18.8 µM. For the same compound, the TGI in the assay on SR leukemia is 6.66 µM; with SF-268 CNS, 11.4 µM; in the assay with HCC-2998 colon it was over 49.7 µM; in the assay with CCRF-CEM leukemia it was over 24.3 µM.
As for `COc1nc2ncc([C@@H](OC(C)=O)[C@@H](COC(C)=O)OC(C)=O)nc2c(=O)[nH]1`, the TGI in the assay with SK-OV-3 ovarian, in the assay on LOX IMVI melanoma, with MDA-MB-435, with NCI-H522 lung, in the assay with A498 renal and in the assay with OVCAR-3 ovarian was over 100 µM in each case. Further, the TGI in the assay on SR leukemia, in the assay with SF-268 CNS and with CCRF-CEM leukemia was over 100 µM each time. Besides, the GI50 was > 100000 nM and 41700 nM in the assay with NCI-H522 lung; > 100 µM and 39.4 µM in the assay with SR leukemia.
For the compound `CNc1ncnc2c1cnn2COCC(O)CO` (stereo unspecified), the TGI with SK-OV-3 ovarian, in the assay on LOX IMVI melanoma, with MDA-MB-435, in the assay with NCI-H522 lung, in the assay with A498 renal and in the assay on OVCAR-3 ovarian was over 100 µM throughout. Besides, the TGI in the assay on SR leukemia, in the assay on SF-268 CNS, in the assay with HCC-2998 colon and in the assay on CCRF-CEM leukemia was over 100 µM each time.
As for `O=[N+]([O-])c1ccc(/C=C/c2cc(-c3ccccc3)nc3ccc4ccccc4c23)cc1`, the TGI in the assay with SK-OV-3 ovarian, with LOX IMVI melanoma, in the assay on MDA-MB-435, in the assay on A498 renal, in the assay on OVCAR-3 ovarian and in the assay on SR leukemia was over 100 µM each time. Moreover, the TGI with SF-268 CNS, with HCC-2998 colon and in the assay with CCRF-CEM leukemia was over 100 µM each time.
`CC(=O)c1cccn1/C=C(\OC(=O)OC(C)(C)C)c1ccc[nH]1`: the TGI with LOX IMVI melanoma, with MDA-MB-435, with NCI-H522 lung, in the assay with A498 renal, in the assay with OVCAR-3 ovarian and in the assay on SR leukemia was over 100 µM throughout. Besides, the TGI in the assay with SF-268 CNS, in the assay on HCC-2998 colon and in the assay on CCRF-CEM leukemia was over 100 µM throughout.
With `Cc1cn(-c2cc(C(=O)Nc3cccc(-n4ccc5c(NC(=O)c6ccccc6)nccc54)c3)cc(C(F)(F)F)c2)cn1`, the GI50 is 325 nM with SK-OV-3 ovarian; 0.379 µM in the assay with LOX IMVI melanoma; 217 nM with MDA-MB-435; 375 nM with NCI-H522 lung; 223 nM in the assay with A498 renal; 313 nM in the assay on OVCAR-3 ovarian. Moreover, the GI50 is 0.14 µM with SR leukemia, 514 nM in the assay with SF-268 CNS, 862 nM in the assay on HCC-2998 colon and 299 nM in the assay with CCRF-CEM leukemia. For the same compound, the TGI in the assay on SK-OV-3 ovarian was determined as 3.53 µM; in the assay on LOX IMVI melanoma it was 2.07 µM; in the assay on MDA-MB-435, 0.635 µM; in the assay on NCI-H522 lung, 8.21 µM; in the assay on A498 renal, 1.71 µM; in the assay with OVCAR-3 ovarian, 1.03 µM. In addition, the figures for the TGI with SF-268 CNS, in the assay on HCC-2998 colon and in the assay with CCRF-CEM leukemia were 7.89 µM, 4.79 µM and 2.09 µM, respectively.
